Test results reported in the NIST ThermoML archive (doi:10.1016/j.jct.2015.09.029).
Numbers after ± are expanded uncertainties.

Assay: mn = molality of the nth substance listed, in mol/kg
Details: 100 kPa, Liquid; for viscosity: Capillary tube (Ostwald / Ubbelohde) method; for speed of sound: Frequency=2 MHz, Linear variable-path acoustic interferometer; for mass density: Vibrating tube method

CC(C)C[P+](C)(CC(C)C)CC(C)C.Cc1ccc(S(=O)(=O)[O-])cc1 [triisobutylmethylphosphonium p-toluenesulfonate] + O
viscosity (298.15 K, m1 = 0.0237): 0.9191 ± 0.019 mPa·s
viscosity (298.15 K, m1 = 0.0468): 0.9471 ± 0.02 mPa·s
viscosity (298.15 K, m1 = 0.0663): 0.9707 ± 0.02 mPa·s
viscosity (298.15 K, m1 = 0.0901): 0.9996 ± 0.021 mPa·s
viscosity (298.15 K, m1 = 0.1848): 1.115 ± 0.023 mPa·s
viscosity (298.15 K, m1 = 0.2883): 1.241 ± 0.026 mPa·s
viscosity (298.15 K, m1 = 0.3948): 1.373 ± 0.029 mPa·s
viscosity (298.15 K, m1 = 0.4278): 1.413 ± 0.03 mPa·s
viscosity (298.15 K, m1 = 0.478): 1.475 ± 0.031 mPa·s
viscosity (298.15 K, m1 = 0.5156): 1.522 ± 0.032 mPa·s
speed of sound (298.15 K, m1 = 0.0237): 1507.2 ± 4.3 m/s
speed of sound (298.15 K, m1 = 0.0468): 1513.7 ± 4.3 m/s
speed of sound (298.15 K, m1 = 0.0663): 1518.8 ± 4.3 m/s
speed of sound (298.15 K, m1 = 0.0901): 1524.8 ± 4.3 m/s
speed of sound (298.15 K, m1 = 0.1848): 1546.4 ± 4.3 m/s
speed of sound (298.15 K, m1 = 0.2883): 1566.5 ± 4.3 m/s
speed of sound (298.15 K, m1 = 0.3948): 1586.1 ± 4.3 m/s
speed of sound (298.15 K, m1 = 0.4278): 1592.4 ± 4.3 m/s
speed of sound (298.15 K, m1 = 0.478): 1601.7 ± 4.4 m/s
speed of sound (298.15 K, m1 = 0.5156): 1608.3 ± 4.4 m/s
mass density (298.15 K, m1 = 0.0237): 997.74 ± 0.11 kg/m3
mass density (298.15 K, m1 = 0.0468): 998.42 ± 0.11 kg/m3
mass density (298.15 K, m1 = 0.0663): 999 ± 0.11 kg/m3
mass density (298.15 K, m1 = 0.0901): 999.7 ± 0.11 kg/m3
mass density (298.15 K, m1 = 0.1848): 1002.5 ± 0.12 kg/m3
mass density (298.15 K, m1 = 0.2883): 1005.48 ± 0.14 kg/m3
mass density (298.15 K, m1 = 0.3948): 1008.42 ± 0.17 kg/m3
mass density (298.15 K, m1 = 0.4278): 1009.28 ± 0.18 kg/m3
mass density (298.15 K, m1 = 0.478): 1010.56 ± 0.2 kg/m3
mass density (298.15 K, m1 = 0.5156): 1011.48 ± 0.22 kg/m3
viscosity (303.15 K, m1 = 0.0237): 0.8224 ± 0.017 mPa·s
viscosity (303.15 K, m1 = 0.0468): 0.8466 ± 0.018 mPa·s
viscosity (303.15 K, m1 = 0.0663): 0.8669 ± 0.018 mPa·s
viscosity (303.15 K, m1 = 0.0901): 0.8919 ± 0.019 mPa·s
viscosity (303.15 K, m1 = 0.1848): 0.9914 ± 0.021 mPa·s
viscosity (303.15 K, m1 = 0.2883): 1.101 ± 0.023 mPa·s
viscosity (303.15 K, m1 = 0.3948): 1.214 ± 0.026 mPa·s
viscosity (303.15 K, m1 = 0.4278): 1.249 ± 0.027 mPa·s
viscosity (303.15 K, m1 = 0.478): 1.302 ± 0.028 mPa·s
viscosity (303.15 K, m1 = 0.5156): 1.343 ± 0.029 mPa·s
speed of sound (303.15 K, m1 = 0.0237): 1518.8 ± 4.3 m/s
speed of sound (303.15 K, m1 = 0.0468): 1525.3 ± 4.3 m/s
speed of sound (303.15 K, m1 = 0.0663): 1530.8 ± 4.3 m/s
speed of sound (303.15 K, m1 = 0.0901): 1536.6 ± 4.3 m/s
speed of sound (303.15 K, m1 = 0.1848): 1555.9 ± 4.3 m/s
speed of sound (303.15 K, m1 = 0.2883): 1574.5 ± 4.3 m/s
speed of sound (303.15 K, m1 = 0.3948): 1590.7 ± 4.3 m/s
speed of sound (303.15 K, m1 = 0.4278): 1596.2 ± 4.3 m/s
speed of sound (303.15 K, m1 = 0.478): 1604 ± 4.4 m/s
speed of sound (303.15 K, m1 = 0.5156): 1609.4 ± 4.4 m/s
mass density (303.15 K, m1 = 0.0237): 996.31 ± 0.11 kg/m3
mass density (303.15 K, m1 = 0.0468): 996.97 ± 0.11 kg/m3
mass density (303.15 K, m1 = 0.0663): 997.53 ± 0.11 kg/m3
mass density (303.15 K, m1 = 0.0901): 998.21 ± 0.11 kg/m3
mass density (303.15 K, m1 = 0.1848): 1000.89 ± 0.12 kg/m3
mass density (303.15 K, m1 = 0.2883): 1003.76 ± 0.14 kg/m3
mass density (303.15 K, m1 = 0.3948): 1006.58 ± 0.17 kg/m3
mass density (303.15 K, m1 = 0.4278): 1007.42 ± 0.18 kg/m3
mass density (303.15 K, m1 = 0.478): 1008.64 ± 0.2 kg/m3
mass density (303.15 K, m1 = 0.5156): 1009.52 ± 0.21 kg/m3
viscosity (308.15 K, m1 = 0.0253): 0.7415 ± 0.016 mPa·s
viscosity (308.15 K, m1 = 0.053): 0.7656 ± 0.016 mPa·s
viscosity (308.15 K, m1 = 0.0791): 0.7883 ± 0.017 mPa·s
viscosity (308.15 K, m1 = 0.1003): 0.8068 ± 0.017 mPa·s
viscosity (308.15 K, m1 = 0.2056): 0.8989 ± 0.019 mPa·s
viscosity (308.15 K, m1 = 0.2689): 0.9546 ± 0.02 mPa·s
viscosity (308.15 K, m1 = 0.3193): 0.999 ± 0.021 mPa·s
viscosity (308.15 K, m1 = 0.3643): 1.039 ± 0.022 mPa·s
viscosity (308.15 K, m1 = 0.4345): 1.101 ± 0.024 mPa·s
viscosity (308.15 K, m1 = 0.5175): 1.175 ± 0.025 mPa·s
speed of sound (308.15 K, m1 = 0.0253): 1528.8 ± 4.3 m/s
speed of sound (308.15 K, m1 = 0.053): 1536.4 ± 4.3 m/s
speed of sound (308.15 K, m1 = 0.0791): 1541.7 ± 4.3 m/s
speed of sound (308.15 K, m1 = 0.1003): 1545.6 ± 4.3 m/s
speed of sound (308.15 K, m1 = 0.2056): 1566.2 ± 4.3 m/s
speed of sound (308.15 K, m1 = 0.2689): 1577.9 ± 4.3 m/s
speed of sound (308.15 K, m1 = 0.3193): 1587.2 ± 4.3 m/s
speed of sound (308.15 K, m1 = 0.3643): 1592.7 ± 4.3 m/s
speed of sound (308.15 K, m1 = 0.4345): 1602 ± 4.3 m/s
speed of sound (308.15 K, m1 = 0.5175): 1612.8 ± 4.4 m/s
mass density (308.15 K, m1 = 0.0253): 994.73 ± 0.11 kg/m3
mass density (308.15 K, m1 = 0.053): 995.49 ± 0.11 kg/m3
mass density (308.15 K, m1 = 0.0791): 996.21 ± 0.11 kg/m3
mass density (308.15 K, m1 = 0.1003): 996.79 ± 0.11 kg/m3
mass density (308.15 K, m1 = 0.2056): 999.66 ± 0.13 kg/m3
mass density (308.15 K, m1 = 0.2689): 1001.35 ± 0.14 kg/m3
mass density (308.15 K, m1 = 0.3193): 1002.66 ± 0.15 kg/m3
mass density (308.15 K, m1 = 0.3643): 1003.8 ± 0.16 kg/m3
mass density (308.15 K, m1 = 0.4345): 1005.51 ± 0.18 kg/m3
mass density (308.15 K, m1 = 0.5175): 1007.42 ± 0.21 kg/m3
viscosity (313.15 K, m1 = 0.0253): 0.6717 ± 0.014 mPa·s
viscosity (313.15 K, m1 = 0.053): 0.692 ± 0.015 mPa·s
viscosity (313.15 K, m1 = 0.0791): 0.7111 ± 0.015 mPa·s
viscosity (313.15 K, m1 = 0.1003): 0.7266 ± 0.015 mPa·s
viscosity (313.15 K, m1 = 0.2056): 0.8042 ± 0.017 mPa·s
viscosity (313.15 K, m1 = 0.2689): 0.851 ± 0.018 mPa·s
viscosity (313.15 K, m1 = 0.3193): 0.8883 ± 0.019 mPa·s
viscosity (313.15 K, m1 = 0.3643): 0.9218 ± 0.02 mPa·s
viscosity (313.15 K, m1 = 0.4345): 0.9741 ± 0.021 mPa·s
viscosity (313.15 K, m1 = 0.5175): 1.036 ± 0.022 mPa·s
speed of sound (313.15 K, m1 = 0.0253): 1538.7 ± 4.3 m/s
speed of sound (313.15 K, m1 = 0.053): 1545.1 ± 4.3 m/s
speed of sound (313.15 K, m1 = 0.0791): 1551.5 ± 4.3 m/s
speed of sound (313.15 K, m1 = 0.1003): 1556.3 ± 4.3 m/s
speed of sound (313.15 K, m1 = 0.2056): 1575.1 ± 4.3 m/s
speed of sound (313.15 K, m1 = 0.2689): 1584.7 ± 4.3 m/s
speed of sound (313.15 K, m1 = 0.3193): 1592.3 ± 4.3 m/s
speed of sound (313.15 K, m1 = 0.3643): 1598.1 ± 4.3 m/s
speed of sound (313.15 K, m1 = 0.4345): 1607.3 ± 4.3 m/s
speed of sound (313.15 K, m1 = 0.5175): 1617.1 ± 4.4 m/s
mass density (313.15 K, m1 = 0.0253): 992.9 ± 0.11 kg/m3
mass density (313.15 K, m1 = 0.053): 993.66 ± 0.11 kg/m3
mass density (313.15 K, m1 = 0.0791): 994.36 ± 0.11 kg/m3
mass density (313.15 K, m1 = 0.1003): 994.92 ± 0.11 kg/m3
mass density (313.15 K, m1 = 0.2056): 997.66 ± 0.13 kg/m3
mass density (313.15 K, m1 = 0.2689): 999.26 ± 0.14 kg/m3
mass density (313.15 K, m1 = 0.3193): 1000.5 ± 0.15 kg/m3
mass density (313.15 K, m1 = 0.3643): 1001.59 ± 0.16 kg/m3
mass density (313.15 K, m1 = 0.4345): 1003.25 ± 0.18 kg/m3
mass density (313.15 K, m1 = 0.5175): 1005.14 ± 0.21 kg/m3
